Source: US20240384353A1, “METHODS OF TREATING PANCREATIC CANCER” (Fred Hutchinson Cancer Center, priority 2023, published 2024)

Test system: human PDA tumors
Test: Median survival by HMGA2/GATA6 status (IHC, tissue microarray of human PDA tumors) and first-line therapy
Assay type: in vivo
Settings: first-line therapy, FIG. 12A-12B
Procedure: Expression levels of HMGA2 and GATA6 were determined separately in Tissue microarray comprising human PDA tumors from over 800 patients, along with matched (normal pancreatic tissue) controls and correlated to clinical data (stage at diagnosis, treatment history). These samples were stained and scored for HMGA2 (FIG. 9A) and GATA6.

Compound: Nc1ccn([C@@H]2O[C@H](CO)[C@@H](O)C2(F)F)c(=O)n1 [Gemcitabine]
- overall median survival of HMGA2^high/GATA6^low tumors compared to HMGA2^low/GATA6^high tumors: overall low median survival
